Experimental data: paper PMC3795654, “Combinatorial Optimization of Cystine-Knot Peptides towards High-Affinity Inhibitors of Human Matriptase-1” (PLoS ONE, 2013)
Where two headings read alike, the source gives them in different places. Where a SMILES comes first, the peptide text is derived from it. Bridges are numbered along the chain shown (N, C = ends).

Experiments:
[1] = target: T1, Bovine pancreatic trypsin (Bos taurus, UniProt P00760); assay: Trypsin inhibition assay (substrate-independent Ki); format: biochemical; details: substrate-independent Ki from Ki app (Morrison equation) and Km; 250 µM substrate; preincubation 30 min RT; read over 30 min; triplicate
T1 construct: purchased Sigma-Aldrich
T1 sequence (P00760 24-246): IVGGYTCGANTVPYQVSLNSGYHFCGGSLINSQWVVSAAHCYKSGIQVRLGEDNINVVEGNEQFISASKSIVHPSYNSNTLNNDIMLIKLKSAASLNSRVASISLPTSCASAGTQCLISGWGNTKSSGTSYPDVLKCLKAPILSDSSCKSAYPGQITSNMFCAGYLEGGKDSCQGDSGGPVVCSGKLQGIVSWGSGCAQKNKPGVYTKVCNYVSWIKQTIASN
Experimental: Bovine pancreatic trypsin, thrombin and uPA were purchased from Sigma-Aldrich and Hepsin from R&D Systems.
Measurements were carried out in triplicate using a Tecan Genios ELISA reader. The normalized residual proteolytic activity (v/v0) of proteases was determined using substrates Boc-QAR-pNA (250 µM, (pNA stands for para-nitro aniline), Boc-QAR-AMC (250 µM, AMC stands for amino-methyl coumarin) or Spectrozym tPA (250 µM, American Diagnostica, CH3SO2-D-CHT-Gly-Arg-pNA AcOH). Product formation was monitored after preincubation (30 min, RT) with inhibitor at different concentrations over 30 min by measuring the absorbance at 405 nm for pNA substrates or the fluorescence emission for AMC substrates (ex. 360 nm, em. 465 nm), respectively. Selectivity data were carried out in duplicates with final protease concentrations of uPA and thrombin of 5 nM. In case of hepsin 50 mM Tris/HCl pH 9.0 was used as assay buffer.
(§1) Apparent inhibition constants (Ki ^app) were calculated by fitting the Morrison equation (1) for tight-binding inhibitors to the relative reaction velocity using non-linear regression (Marquardt-Levenberg algorithm, Sigma Plot 11) [63].
(§2) Substrate-independent inhibition constants Ki were calculated from Ki ^app and Km of the enzyme according to (2).

Human matriptase-1 = target: T2, Human matriptase-1 (Homo sapiens, UniProt Q9Y5Y6); assay: Matriptase-1 inhibition assay (Ki / Ki app); format: biochemical
T2 construct: made in house
T2 sequence (Q9Y5Y6 615-855 limits assumed): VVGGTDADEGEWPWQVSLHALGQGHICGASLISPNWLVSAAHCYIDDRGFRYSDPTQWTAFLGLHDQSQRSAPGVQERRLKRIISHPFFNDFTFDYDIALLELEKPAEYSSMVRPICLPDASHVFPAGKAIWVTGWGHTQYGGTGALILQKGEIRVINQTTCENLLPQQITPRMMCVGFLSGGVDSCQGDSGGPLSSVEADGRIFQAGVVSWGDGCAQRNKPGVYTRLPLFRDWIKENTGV
Experimental: Human matriptase-1 was produced recombinantly, autocatalytically activated and purified as previously reported [35], [49], [51], [60].
Measurements were carried out in triplicate using a Tecan Genios ELISA reader.
as §1, §2

[2] = tested on: uPA activation by matriptase-1 on the surface of PC-3 cells; assay: Cell inhibition assay: uPA activation by matriptase-1 on the surface of PC-3 cells; format: cell-based, human; details: control, concentration of 10 µM
Experimental: Human prostate cancer cells (PC-3, Merck KGaA) were cultured in DMEM medium with 10% FCS at 37°C and 5% CO2, washed with cation-free PBS and harvested by scraping. 1×10^5 cells were incubated in presence of 250 µM Bz-β-Ala-Gly-Arg-pNA·AcOH (American Diagnostica), which is a specific […] of urokinase, and the inhibitor of interest in defined dilutions overnight. Product formation was monitored at 405 nm before and after incubation in a microplate reader. IC50 was calculated by non-linear regression using SigmaPlot 11.
Urokinase-type plasminogen activator (uPA) causes the degradation of the extracellular matrix and plays a critical role in tumor invasion and metastasis, [73]. It was shown that activation of receptor-bound pro-uPA is affected by matriptase-1, which results in a decreased ability of uPAexpressing tumor cells to invade an extracellular matrix layer upon inhibition of membrane-bound matriptase-1 [72].
For the indirect determination of the IC50 of SOTI Var. 1 and MCoTI Var. 4 on the surface of these cancer cells, the turnover of an uPA substrate was monitored. Pro-uPA is activated through non-inhibited matriptase-1 and substrate turnover was measured and compared to the previously reported small molecule inhibitor S1 of matriptase-1 (Figure 4). In this experimental setting, the MCoTI-based inhibitor Var. […] 4 in this assay.
Figure 4 Inhibition assay of uPA activation by matriptase-1 on the surface of PC-3 cells. Depicted is the logarithmic inhibitor concentration against the absorption at 405 TEXT PRINTED IN THE PICTURE: MCoTI Var.

[3] = substrate-independent Ki from Ki app (Morrison equation) and Km, 250 µM substrate, preincubation 30 min RT, read over 30 min, triplicate, read-out: Ki (Matriptase-1)
[4] = apparent inhibition constant (Morrison equation), MCoTI variants isolated from M. cochinchinensis seeds, oMCoTI-II synthetic, read-out: Kiapp towards matriptase-1

Work on `CC[C@H](C)[C@@H]1NC(=O)[C@@H]2CSSC[C@H](NC(=O)[C@H](CCCNC(=N)N)NC(=O)[C@H](CCCNC(=N)N)NC(=O)[C@@H](N)CC(N)=O)C(=O)N3CCC[C@H]3C(=O)N[C@@H](CCCCN)C(=O)N[C@@H](C(C)C)C(=O)N[C@@H](CC(C)C)C(=O)N[C@@H](CCCCN)C(=O)N[C@@H](C)C(=O)N[C@H]3CSSC[C@H](NC1=O)C(=O)N[C@@H](CCCNC(=N)N)C(=O)NCC(=O)N[C@@H](CC(N)=O)C(=O)NCC(=O)N[C@@H](Cc1ccc(O)cc1)C(=O)N[C@H](C(=O)NCC(N)=O)CSSC[C@H](NC(=O)[C@H](CC(=O)O)NC(=O)[C@H](CO)NC(=O)[C@H](CC(=O)O)NC(=O)[C@H](CCCNC(=N)N)NC(=O)[C@H](CCCNC(=N)N)NC3=O)C(=O)N1CCC[C@H]1C(=O)NCC(=O)N[C@@H](C)C(=O)N2` [MCoTI Var. 2] yielded a Ki [1] of 19.2 ± 2.8 nM and a Ki (Human matriptase-1; [3]) of 3.3 ± 0.4 nM.
For `CC[C@H](C)[C@@H]1NC(=O)[C@H](C)NC(=O)CNC(=O)[C@H](CO)NC(=O)[C@@H]2CCCN2C(=O)[C@H](CO)NC(=O)[C@@H](NC(=O)[C@H](CCCCN)NC(=O)[C@H](CC(=O)O)NC(=O)[C@@H](N)CCC(=O)O)CSSC[C@@H]2NC(=O)[C@@H]3CSSC[C@@H](C(=O)N[C@@H](CCC(N)=O)C(=O)O)NC(=O)[C@H](CCCNC(=N)N)NC(=O)[C@H](Cc4c[nH]c5ccccc45)NC(=O)[C@H](CO)NC(=O)[C@H](CCCNC(=N)N)NC(=O)[C@H](C)NC(=O)[C@H](CCCNC(=N)N)NC(=O)[C@H](CCCNC(=N)N)NC(=O)[C@H](CC(N)=O)NC(=O)[C@H](CC(C)C)NC(=O)[C@H](C(C)C)NC(=O)[C@H](CSSC[C@H](NC1=O)C(=O)N[C@@H](CO)C(=O)NCC(=O)N[C@@H](Cc1ccccc1)C(=O)NCC(=O)N1CCC[C@H]1C(=O)N1CCC[C@H]1C(=O)N[C@@H](CCC(=O)O)C(=O)N[C@@H](CCC(N)=O)C(=O)N3)NC(=O)[C@H](C)NC(=O)CNC(=O)[C@H](CO)NC2=O` [SOTI Var. 1] (H-EDKCSPSGAICSGFGPPEQCCSGACVLNRRARSWRCQ-OH; disulfide 4-21, 11-25, 20-36), the Ki [1] was over 1000 nM, the “Ki (Trypsin)” value [1] was “total loss of trypsin inhibition” and the Ki (Human matriptase-1; [3]) was 28.9 ± 3.5 nM.
`CC[C@H](C)[C@@H]1NC(=O)[C@@H]2CSSC[C@H](NC(=O)[C@@H](NC(=O)CNC(=O)[C@@H](N)CO)C(C)C)C(=O)N3CCC[C@H]3C(=O)N[C@@H](CCCCN)C(=O)N[C@@H]([C@@H](C)CC)C(=O)N[C@@H](CC(C)C)C(=O)N[C@@H](CCCCN)C(=O)N[C@@H](CCCCN)C(=O)N[C@H]3CSSC[C@H](NC1=O)C(=O)N[C@@H](CCCNC(=N)N)C(=O)NCC(=O)N[C@@H](CC(N)=O)C(=O)NCC(=O)N[C@@H](Cc1ccc(O)cc1)C(=O)N[C@H](C(=O)NCC(N)=O)CSSC[C@H](NC(=O)[C@H](CC(=O)O)NC(=O)[C@H](CO)NC(=O)[C@H](CC(=O)O)NC(=O)[C@H](CCCNC(=N)N)NC(=O)[C@H](CCCNC(=N)N)NC3=O)C(=O)N1CCC[C@H]1C(=O)NCC(=O)N[C@@H](C)C(=O)N2` [oMCoTI-II, reference compound] (H-SGVCPKILKKCRRDSDCPGACICRGNGYCG-NH2; disulfide 4-21, 11-23, 17-29) showed a Ki (Human matriptase-1; [4]) of 276 ± 13 nM.
Compound `CC[C@H](C)[C@@H]1NC(=O)[C@@H]2CSSC[C@@H]3NC(=O)[C@H](C(C)C)NC(=O)CNC(=O)CNC(=O)C[C@@H](C(=O)O)NC(=O)[C@H](CO)NC(=O)CNC(=O)[C@H](CO)NC(=O)CNC(=O)[C@@H]4CSSC[C@H](NC(=O)[C@H](CC(=O)O)NC(=O)[C@H](CO)NC(=O)[C@H](CC(=O)O)NC(=O)[C@H](CCCNC(=N)N)NC(=O)[C@H](CCCNC(=N)N)NC(=O)[C@H](CSSC[C@H](NC1=O)C(=O)N[C@@H](CCCNC(=N)N)C(=O)NCC(=O)N[C@@H](CC(N)=O)C(=O)NCC(=O)N[C@@H](Cc1ccc(O)cc1)C(=O)N4)NC(=O)[C@H](CCCCN)NC(=O)[C@H](CCCCN)NC(=O)[C@H](CC(C)C)NC(=O)[C@H]([C@@H](C)CC)NC(=O)[C@H](CCCCN)NC(=O)[C@@H]1CCCN1C3=O)C(=O)N1CCC[C@H]1C(=O)NCC(=O)N[C@@H](C)C(=O)N2` [MCoTI-II (ß-asp), reference compound] (GGVCPKILKKCRRDSDCPGACICRGNGYCGSGSD-OH; disulfide 4-21, 11-23, 17-29; lactam N-34) has a Ki (Human matriptase-1; [4]) of 388 ± 32 nM.
For `CC[C@H](C)[C@H](N)C(=O)NCC(=O)N[C@H](C(=O)N[C@H]1CSSC[C@@H]2NC(=O)[C@H](C)NC(=O)CNC(=O)[C@@H]3CCCN3C(=O)[C@@H]3CSSC[C@@H](C(=O)NCC(N)=O)NC(=O)[C@H](Cc4ccc(O)cc4)NC(=O)CNC(=O)[C@H](CC(N)=O)NC(=O)CNC(=O)[C@H](CCCNC(=N)N)NC(=O)[C@H](CSSC[C@H](NC(=O)[C@H](C)NC(=O)[C@H](CCCNC(=N)N)NC(=O)[C@H](CC(C)C)NC(=O)[C@H](CC(C)C)NC(=O)[C@H](CCCCN)NC(=O)[C@@H]4CCCN4C1=O)C(=O)N[C@@H](CCCNC(=N)N)C(=O)N[C@@H](CCCNC(=N)N)C(=O)N[C@@H](CC(=O)O)C(=O)N[C@@H](CO)C(=O)N[C@@H](CC(=O)O)C(=O)N3)NC(=O)[C@H]([C@@H](C)CC)NC2=O)C(C)C` [MCoTI Var. 1] (H-IGVCPKLLRACRRDSDCPGACICRGNGYCG-NH2; disulfide 4-21, 11-23, 17-29), the Ki [1] was 31.7 ± 4.3 nM and the Ki (Human matriptase-1; [3]) was 4.4 ± 0.6 nM.
For `CC[C@H](C)[C@@H]1NC(=O)[C@H](C)NC(=O)CNC(=O)[C@H](CO)NC(=O)[C@@H]2CCCN2C(=O)[C@H](CO)NC(=O)[C@@H](NC(=O)[C@H](CCCCN)NC(=O)[C@H](CC(=O)O)NC(=O)[C@@H](N)CCC(=O)O)CSSC[C@@H]2NC(=O)[C@@H]3CSSC[C@@H](C(=O)N[C@@H](CCC(N)=O)C(=O)O)NC(=O)[C@H](C(C)C)NC(=O)[C@H](Cc4ccccc4)NC(=O)[C@H]([C@@H](C)CC)NC(=O)[C@H](CCCNC(=N)N)NC(=O)[C@H](CC(C)C)NC(=O)[C@H]([C@@H](C)CC)NC(=O)[C@@H]4CCCN4C(=O)[C@H](Cc4c[nH]cn4)NC(=O)[C@@H]4CCCN4C(=O)[C@H](C(C)C)NC(=O)[C@H](CSSC[C@H](NC1=O)C(=O)N[C@@H](CO)C(=O)NCC(=O)N[C@@H](Cc1ccccc1)C(=O)NCC(=O)N1CCC[C@H]1C(=O)N1CCC[C@H]1C(=O)N[C@@H](CCC(=O)O)C(=O)N[C@@H](CCC(N)=O)C(=O)N3)NC(=O)[C@H](C)NC(=O)CNC(=O)[C@H](CO)NC2=O` [SOTI-III wt, Spinacia oleracea trypsin inhibitor III, reference compound] (H-EDKCSPSGAICSGFGPPEQCCSGACVPHPILRIFVCQ-OH; disulfide 4-21, 11-25, 20-36), the “inhibition of matriptase-1 or uPA in the PC-3 assay” value [2] was “no inhibition”, the Ki [1] was 60.6 ± 8.4 nM and the “Ki (Matriptase-1)” value (Human matriptase-1; substrate-independent Ki from Ki app (Morrison equation) and Km, 250 µM substrate, preincubation 30 min RT, read over 30 min, triplicate) was “did not display measurable inhibitory activity”. The Ki (Human matriptase-1; [3]) was over 1000 nM.
